Laboratory results as given in US10507210B2, “Kinase inhibitor prodrug for the treatment of cancer” (Auckland UniServices Limited, priority 2014, dated 2019).
Each block holds one compound with its values, some of them ahead of it.

Experiments:
[1] = system: EGFR autophosphorylation (Y1068)
Protocol: HCC827 and PC9 cell cultures are set up from log-phase passage flasks. Cells are seeded into 6-well plates at a density of 1 million cells per well and left for 48 hours under normoxic or hypoxic (1% O2) conditions. Following 3 hours of drug exposure, cells are washed in ice-cold PBS and lysed on ice for 30 minutes with radioimmunoprecipitation assay (RIPA) buffer containing sodium orthovanadate and sodium fluoride at final concentrations of 1 mM each. Cell debris is pelleted out by centrifugation (13,000 rpm for 2 minutes). Protein concentrations in each sample are determined by a bicinchoninic acid (BCA) assay. Equivalent amounts of protein (10 pig) are denatured (98° C. for 5 minutes) and loaded onto 4-20% Tris-Glycine protein gels for protein separation. Following transfer to a nitrocellulose membrane, each membrane was blocked with 5% bovine serum albumin (in Tris-buffered saline) for 1 hour. […] Excess primary antibody in each membrane was washed off with Tris-buffered saline. Secondary antibody (goat anti-rabbit) was added to each membrane at a dilution of 1:5000 for 2 hours. For protein detection, the membrane was washed in Tris-buffered saline to remove excess secondary antibody and chemiluminescent substrate added (Pierce Supersignal West Pico Chemiluminescent Substrate) for 5 minutes. The membrane was viewed using a Fujifilm LAS 4000 imager.

[2] = system: WT EGFR driven H125 xenografts; settings: mouse, in vivo
in vivo [3] = settings: NIH-III nude, mouse, blood, po, 10 mg/kg
FaDu cells [4] = experiment: FaDu anti-proliferative assay, oxic vs anoxic 24 h exposure; assay type: cell-based, human
Protocol: (§1) FaDu cells were grown in αMEM culture medium supplemented with 5% FBS, without routine use of antibiotics (P/S). Cultures were re-established from authenticated frozen stocks in liquid nitrogen at either >24 passages or >90 days in culture (whichever came first). The frozen cell stocks were confirmed to be free of mycoplasma using a PCR-ELIZA kit (Roche Diagnostics GmbH, Mannheim, Germany).
Monolayers of FaDu cells were harvested by trypsinisation and counted using a hemocytometer. For the oxic assays, cells were seeded (1500 cells/well) in 96 well plates and allowed to settle for 2 hours in a humidified incubator (37 C/5% CO2). Cells were then treated with ten serial dilutions (3-fold) of each test compound for 24 hours. For the anoxic plates, all supplies were pre-equilibrated for at least 72 hours in a H2/palladium-catalyst anaerobic chamber (Bactron, Shellab) to remove any residual oxygen. On the experiment day, cells were centrifuged (1000 rpm, 5 min) to pellet cells. The media was aspirated. The pellet was then taken into the anaerobic chamber and diluted in anoxia-equilibrated media (αMEM culture media, 5% FCS, 0.2 mmol/L 2′-deoxycytidine, 10 mmol/L glucose) to achieve the appropriate cell density. Cells were seeded in identical conditions to the oxic plates. Once seeded, cells were left to settle in a humidified incubator (37 C) within the anaerobic chamber for 2 hours. Anoxic plates were similarly treated with ten serial dilutions (3-fold) of each test compound. Anoxic plates were removed from the anaerobic chamber four hours after drug addition, and placed into a humidified incubator (37 C/5% CO2) for a further 20 hours. After a total of 24 hours of drug exposure, both the oxic and anoxic plates were washed three times in fresh media (αMEM+5% FCS+P/S). Cells were left to grow for a total of 5 days. After which, cells were fixed with 40% trichloroacetic acid for 1 hour at 4° C. Plates were then stained for Sulforhodamine B (SRB) expression. Cell density was determined by using the Biotek ELx808 Absorbance Microplate Reader. […]

PC9 xenografts = assay type: in vivo; settings: erlotinib 10 mg/kg daily oral, period of dosing 21 days
Protocol: Tumors were grown to ˜400 mm^3. When tumors were 400 mm^3 mice were randomly assigned to groups A-J and treated as detailed below:
The length and width of subcutaneous tumors were measured with electronic calipers every 3 days and volume calculated according to the formula for a prolate ellipsoid (π/6×length×width×width). Body weight was recorded every 3 days or prior to dosing. All other clinical signs were recorded.

FaDu cells [5] = experiment: FaDu anti-proliferative assay, five day continuous aerobic exposure; assay type: cell-based, human
Protocol: as §1
Cells were then treated with ten serial dilutions (3-fold) of each test compound. Cells were left to grow in a humidified incubator (5% CO2, 37° C.) for 5 days. Cells were then fixed with 40% trichloroacetic acid for 1 h at 4° C. Cells were then stained for Sulforhodamine B (SRB) expression. Cell density was determined by using the Biotek ELx808 Absorbance Microplate Reader.

HCC827 tumor = experiment: HCC827 xenograft growth delay; assay type: in vivo, mice; settings: Erlotinib 10 mg/kg Qdx21 p.o.
Protocol: (§2) HCC827 and PC9 human non-small cell lung cancer (NSCLC) cells were prepared in medium. […] HCC827 tumors were recruited at ˜200 mm^3 and PC9 tumors were recruited at ˜400 mm^3. When the tumors reached the desired volumes, the mice were randomly assigned to groups A-E and treated as detailed in Table 1 below:
(§3) Body weight was recorded every 3 days or prior to dosing and the length and width of subcutaneous tumors were measured with electronic calipers every 3 days and volume calculated according to the formula for a prolate ellipsoid (π/6×length×width×width). All other clinical signs were recorded.

[6] = system: WT EGFR expressing A431 xenograft; experiment: A431 xenograft antitumor activity; assay type: in vivo, mice; settings: daily oral
PC9 tumor = experiment: PC9 xenograft growth delay; assay type: in vivo, mice
Protocol: as §2, §3

EGFR signalling = experiment: Hypoxia preconditioning and TH-4000E sensitivity in FaDu cells; assay type: cell-based, human; settings: 48 h at 0.1% O2 or 21% O2
Protocol: FaDu cells were seeded (500 k per well) in 6 well plates under both 0.1% O2 and 21% O2 for 48 hours. After 48 h of hypoxia preconditioning, cells were incubated with various concentrations of TH-4000E for 1 h.
After the designated period of anoxic exposure, cells were washed once in ice-cold PBS. […] After clarification, a BCA assay was performed to determine the protein concentration of the samples. Absorbance readings were performed at 550 nm.
Cellular lysates were resolved by gel electrophoresis and immunoblotted for various members of the EGFR signaling axis. Each loading volume included 10 μg of protein and 25% LDS sample buffer (Life Technologies #NP0007). Samples were loaded onto NuPAGE 4-12% Bis-Tris 15 well gels (Life Technologies #NP0336) and run in MES running buffer (Life Technologies #NP0002) for approximately 2 h's at 120V or until the samples had run off the gel (whichever came first). Samples were then transferred (Transfer buffer: 25 mM Tris, 192 mM glycine, 20% methanol) for 80 mins at 100V onto nitrocellulose membranes. Blots were blocked in 5% BSA or 5% phosphoblocker (CellBiolabs #AKR-104) in TBS-T for at least 1 h. Briefly, blots were incubated with primary antibodies overnight at 4° C. After three 5 min washes in TBS-T, blots were then incubated with the appropriate HRP-conjugated secondary antibody for at least 2 hours at room temperature. […]

in vivo [7] = settings: NIH-III, mouse, plasma, ip, 15 mg/kg; for Cmax: 15 mg/kg TH-4000 ip, ± SE
Protocol: (§4) Mice were inoculated with PC-9 cells (˜8×10^6 cells per mouse, 42 mice in total). […] The whole tumors were snap frozen (with liquid nitrogen) and bio-pulverised. The tumors were measured every day until collection to correlate the growth kinetics of the tumor to target shutdown.
(§5) For LC-MS/MS, 4 volumes of ice cold acetonitrile (containing 0.5 μM of D6-TH-4000 & TH-4000E) were added to the tumor samples. Samples were spun at 13,000 rpm for 5 min. and 40 μL of the supernatant was taken. To the supernant, 80 μL of 0.01% FA-Water was added and the sample was mixed. 10 μL of this sample was injected for analysis. […] The mass spectrometer was operated in electrospray positive ionization mode using multiple reaction monitoring (MRM). Agilent MassHunter software (v.4.04.00) was used for data acquisition and chromatographic peak integration.

[8] = 15 mg/kg TH-4000, tumor
Protocol: as §4, §5

[9] = system: EGFR pathway signal transduction; experiment: FaDu target modulation, EGFR pathway relative dose potency
pAkt = experiment: FaDu target modulation Western blot, pAkt; settings: 1 h drug, EGF 50 ng/mL 15 min
pEGFR (Y1068) = pEGFR (Y1068) (Homo sapiens, UniProt P00533); experiment: FaDu target modulation Western blot, pEGFR
pERK = experiment: FaDu target modulation Western blot, pERK; settings: 1 h drug, EGF 50 ng/mL 15 min

SMILES: C=CC(=O)Nc1cc(Nc2nccc(-c3cn(C)c4ccccc34)n2)c(OC)cc1N(C)CCN(C)C [AZD9291]
effect of hypoxia on inhibition of EGFR phosphorylation [1]: resistance to AZD9291

Day of average weight loss nadir [2]: [day 9]
SMILES: CN(C)C/C=C/C(=O)Nc1cc2c(Nc3ccc(F)c(Cl)c3)ncnc2cc1O[C@H]1CCOC1 [Afatinib]

SMILES: C#Cc1cccc(Nc2ncnc3cc(OCCOC)c(OCCOC)cc23)c1 [Erlotinib]
AUC(0-inf) (in vivo [3]): 20000 ng·h/mL | effect of anoxia on sensitivity (FaDu cells [4]): unaffected by anoxia | IC50 lower than cetuximab (FaDu cells [4]; after anoxic exposure): 13 fold | tumor response (PC9 xenografts): stable disease | IC50 difference, erlotinib superior to cetuximab (FaDu cells [5]): 2 fold | Median time to RTV4 (HCC827 tumor): 114 days | tumor outcome [6]: unable to prevent tumor progression | Median Survival gain (PC9 tumor; 10 mg/kg Erlotinib, reference Control): 9 days | Median time to RTV4 (PC9 tumor; Erlotinib 10 mg/kg Qdx21 p.o.): 39 days

SMILES: CN(C)C/C=C/C(=O)Nc1cc2c(Nc3ccc(Cl)c(Br)c3)ncnc2cn1 [TH-4000E]
sensitivity, oxia- vs hypoxia-preconditioned cells (EGFR signalling): comparable | dose-potency relative to erlotinib (IC50) (FaDu cells [4]): 1400 fold | AUC(0-inf) (in vivo [7]): 106 ng·h/mL | half-life (in vivo [7]): 1.28 h | Cmax (in vivo [7]; Cmax obs): 47 ± 3.6 ng/mL | Cmax (in vivo [7]; Cmax pred): 50 ng/mL | T½β of released TKI in PC9 tumors [8]: 84 h | dose potency relative to cetuximab (FaDu cells [5]): 150 fold | lower IC50 value than erlotinib (FaDu cells [5]): 80 fold | dose potency relative to TH-4000 [9]: approximately 28 fold | dose potency relative to cetuximab [9]: at least 250 fold | concentration largely silencing pAkt expression (pAkt): above 0.12 μM | concentration completely silencing pEGFR (Y1068) expression (pEGFR (Y1068); 1 h drug, EGF 50 ng/mL 15 min): ≥ 0.12 μM | pEGFR expression completely silenced up to (pEGFR (Y1068); lowest concentration of 3-fold dilutions): 0.041 μM | concentration completely silencing pERK expression (pERK): ≥ 0.12 μM
